According to patent US9353149B2, “Compounds, compositions and methods for the treatment of diseases through inhibiting TGF-β activity” (Southern Research Institute, priority 2013, dated 2016):
Marks after values point to notes of the source that are not given here. Each block holds one molecule with its values, some of them ahead of it. Residues, ends and D or L forms follow the SMILES beside them.

Legend:
[1] = target: Recombinant latent TGF-beta incubated with TSP1 (Homo sapiens, UniProt P07996); assay: TSP1 activation of recombinant latent TGF-beta, ELISA specific for active TGF-beta; type: biochemical; settings: latent TGF-beta 500 pM, TSP1 48 nM, compounds 1-100 pM; read-out: Activity (IC 50)
Sequence of Recombinant latent TGF-beta incubated with TSP1 (P07996 19-1170): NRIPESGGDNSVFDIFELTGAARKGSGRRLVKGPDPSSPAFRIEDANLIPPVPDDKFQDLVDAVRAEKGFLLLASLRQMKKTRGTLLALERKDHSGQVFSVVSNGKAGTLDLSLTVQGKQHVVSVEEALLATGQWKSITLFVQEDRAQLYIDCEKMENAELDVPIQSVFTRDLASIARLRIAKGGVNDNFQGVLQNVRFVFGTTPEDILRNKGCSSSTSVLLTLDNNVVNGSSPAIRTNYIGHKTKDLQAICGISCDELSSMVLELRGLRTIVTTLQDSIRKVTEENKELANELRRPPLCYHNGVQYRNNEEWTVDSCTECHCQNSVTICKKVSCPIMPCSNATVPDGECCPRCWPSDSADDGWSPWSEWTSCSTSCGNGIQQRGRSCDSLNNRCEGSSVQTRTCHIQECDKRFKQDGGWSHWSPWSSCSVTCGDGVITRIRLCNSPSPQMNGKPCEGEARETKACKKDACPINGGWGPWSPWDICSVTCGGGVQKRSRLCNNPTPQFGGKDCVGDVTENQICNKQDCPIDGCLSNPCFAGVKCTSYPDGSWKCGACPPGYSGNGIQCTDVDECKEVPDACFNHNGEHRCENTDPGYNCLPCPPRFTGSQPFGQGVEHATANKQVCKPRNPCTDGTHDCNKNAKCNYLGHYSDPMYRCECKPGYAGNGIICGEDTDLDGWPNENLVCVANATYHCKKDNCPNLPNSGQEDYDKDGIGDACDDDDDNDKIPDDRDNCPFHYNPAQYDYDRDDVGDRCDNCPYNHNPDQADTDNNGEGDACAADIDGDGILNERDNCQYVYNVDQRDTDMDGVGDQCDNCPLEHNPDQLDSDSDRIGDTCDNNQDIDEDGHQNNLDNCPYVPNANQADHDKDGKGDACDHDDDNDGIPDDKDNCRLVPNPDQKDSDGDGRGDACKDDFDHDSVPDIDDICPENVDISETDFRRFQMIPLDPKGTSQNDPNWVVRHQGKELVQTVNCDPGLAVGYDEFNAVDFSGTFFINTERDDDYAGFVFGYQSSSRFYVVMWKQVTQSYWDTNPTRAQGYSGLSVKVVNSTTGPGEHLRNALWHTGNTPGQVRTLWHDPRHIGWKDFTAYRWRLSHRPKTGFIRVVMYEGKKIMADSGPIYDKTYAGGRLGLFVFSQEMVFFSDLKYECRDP
Protocol: The assay for the IC 50 (Activity) data in Table 1 was as follows: Recombinant latent TGF-beta (500 pM) is incubated with TSP1 (48 nM) in the absence or presence of increasing concentrations of the identified compounds (1-100 pM). TGF-beta activity in the samples was measured using an ELISA specific for active TGF-beta (R&D Systems). IC50 values were calculated from the curves.

[2] = system: human CAG-heparanase myeloma cells; assay: Systemic SCID-CAG-heparanase multiple myeloma model; type: in vivo, Male SCID mice; settings: for Human serum κ / IL-6 / Serum TRAcP 5b: osmotic pump, 4 weeks
Protocol: The Table 2 below provides an analysis of the systemic SCID-CAG-heparanase model treated with increasing doses of Compound No 1 according to the present invention.
Table 2: Analyses of the Systemic SCID-CAG-Heparanase Model Treated with Increasing Doses of Compound No 1
Male SCID mice were injected via tail vein with 1.7×10^6 CAG-hpse cells and tumors allowed to establish over 2 weeks. Groups were randomized according to serum human kappa levels (n=15/group). Treatments were initiated at 2 weeks and continued for 4 weeks. Mice were treated with either saline or 0.3, 3.0, or 30 mg/kg/day of Compound No 1 peptide delivered by osmotic pumps. Pumps were replaced after 2 weeks and fresh peptide and pumps installed. *p<0.05 vs saline.

[3] = Plasma pharmacokinetics after single intravenous and oral administration; type: in vivo, male Swiss Albino mice
[4] = Plasma stability half-life; type: in vitro ADME
Excerpt: Peptides comprising the amino acid sequence LSKL, including the tetrapeptide LSKL, for inhibiting TGF-β activity and the use of these peptides and certain functional derivatives thereof for the treatment of kidney disease are described in U.S. Pat. No. 6,384,189 and U.S. Pat. No. 6,458,767. It is desirable to employ small molecules such as, e.g., LSKL because they are easier to synthesize and, thus, less costly. […] Accordingly, there is a need for small molecules which affect the activation of TGF-β and which also have an extended plasma stability half-life.

TSP1-TGF-β activation = settings: cited from earlier work
[5] = male, Swiss Albino, mouse, iv, 1 mg/kg
[6] = male, Swiss Albino, mouse, po, 3 mg/kg

SMILES: CC(=O)N[C@@H](CO)C(=O)N[C@@H](CCCCN)C(=O)N[C@@H](CC(C)C)C(N)=O [Compound 1] (Ac-Ser-Lys-Leu-NH2)
IC50 [1]: 0.001 to 0.01 nM | Human serum κ ([2]; 0.3 mg/kg/day): 5134 ± 696 ng/mL | IL-6 ([2]; 0.3 mg/kg/day): 70.2 ± 4.7 pg/mL | Serum TRAcP 5b ([2]; 0.3 mg/kg/day): 3.6 +/− 0.28 U/L | Human serum κ ([2]; 3.0 mg/kg/day): 3465 +/− 422* ng/ml | IL-6 ([2]; 3.0 mg/kg/day): 40.0 +/− 4.2* pg/ml | Serum TRAcP 5b ([2]; 3.0 mg/kg/day): 2.8 +/− 0.15* U/L | tibial bone loss (FIG. 1) ([2]; 30 mg/kg dose, SCID/CAG-hpse MM model): reducing tibial bone loss | TRAP^+ OC/mm BS ([2]; 30 mg/kg/day): 1.0 +/− 0.2* | p-Smad 2 IHC in bone marrow ([2]; 30 mg/kg/day): 2390 +/− 472* arbitrary units | μCT (tibia) BV/TV ([2]; 30 mg/kg/day, n = 4): 0.13 +/− 0.01* | μCT (tibia) TbN ([2]; 30 mg/kg/day, n = 4): 4.03 +/− 0.28* | μCT (tibia) TbSp ([2]; 30 mg/kg/day, n = 4): 0.25 +/− 0.02* | Human serum κ ([2]; 30 mg/kg/day): 2593 +/− 443* ng/ml | IL-6 ([2]; 30 mg/kg/day): 31.8 +/− 4.0* pg/ml | Serum TRAcP 5b ([2]; 30 mg/kg/day): 2.5 +/− 0.13* U/L | Co ([3]; i.v., 1 mg/kg): 1025.73 ng/mL | AUC(0-inf) [3, 5]: 1380 ng·h/mL | AUC(0-t) [3, 5]: 1210 ng·h/mL | clearance [3, 5]: 12.1 mL/min/kg | half-life [3, 5]: 637 min | Vd ([3]; male, Swiss Albino, mouse, iv, 1 mg/kg, read-out: Vss): 6.31 L/kg | bioavailability ([3]; male, Swiss Albino, mouse, oral 3 mg/kg vs i.v. 1 mg/kg): 24% | AUC(0-inf) [3, 6]: 1070 ng·h/mL | AUC(0-t) [3, 6]: 875 ng·h/mL | Cmax [3, 6]: 208 ng/mL | Tmax [3, 6]: 30 min

SMILES: CC(=O)N[C@H](C(=O)N[C@@H](CCCCN)C(=O)N[C@@H](CC(C)C)C(N)=O)C(C)O (some centres unmarked) [Compound 2] (HELM PEPTIDE1{[ac].[CC(O)[C@H](N[*:1])C(=O)[*:2]].K.L.[am]}$$$$V2.0)
IC50 [1]: 0.05 to 0.1 nM

SMILES: CC(=O)N[C@@H](CO)C(=O)N[C@@H](CCCCN)C(=O)N(C)[C@@H](CC(C)C)C(N)=O [Compound 10] (HELM PEPTIDE1{[ac].S.K.[meL].[am]}$$$$V2.0)
IC50 [1]: 0.1 to 0.5 nM

SMILES: CNC(=O)[C@H](CC(C)C)NC(=O)[C@H](CCCCN)NC(=O)[C@H](CO)NC(C)=O [Compound 13] (HELM PEPTIDE1{[ac].S.K.L.[CN[*:1]]}$$$$V2.0)
IC50 [1]: 0.05 to 0.1 nM

SMILES: CNC(=O)[C@H](CC(C)C)NC(=O)[C@@H](CCCCN)NC(=O)[C@@H](NC(C)=O)C(C)O (some centres unmarked) [Compound 14] (HELM PEPTIDE1{[ac].[CC(O)[C@H](N[*:1])C(=O)[*:2]].[dK].L.[CN[*:1]]}$$$$V2.0)
IC50 [1]: 0.001 to 0.01 nM

SMILES: CC(=O)N[C@@H](CO)C(=O)N[C@@H](CCCCN(C)C)C(=O)N[C@@H](CC(C)C)C(N)=O [Compound 22] (HELM PEPTIDE1{[ac].S.[CN(C)CCCC[C@H](N[*:1])C(=O)[*:2]].L.[am]}$$$$V2.0)
IC50 [1]: 0.1 to 0.5 nM

SMILES: CC(=O)N[C@@H](CO)C(=O)N[C@@H](CCCCN)C(=O)N[C@@H](CC1CC1)C(N)=O [Compound 37] (HELM PEPTIDE1{[ac].S.K.[O=C([C@H](CC1CC1)N[*:1])[*:2]].[am]}$$$$V2.0)
IC50 [1]: 0.05 to 0.1 nM

SMILES: CC(=O)N[C@H](CO)C(=O)N[C@@H](CCCCN)C(=O)N[C@@H](CC(C)C)C(N)=O [Compound 94] (HELM PEPTIDE1{[ac].[dS].K.L.[am]}$$$$V2.0)
IC50 [1]: 0.1 to 0.5 nM

SMILES: CC(C)C[C@H](NC(=O)[C@H](CCCCN)NC(=O)[C@H](CO)NC(=O)[C@@H](N)CC(C)C)C(=O)O [LSKL, leucine-serine-lysine-leucine] (H-LSKL-OH; N-terminus and C-terminus assumed)
half-life [4]: 2.1 min | necropsy findings (TSP1-TGF-β activation; after 15 weeks of 30 mg/kg i.p., 3 times weekly): no inflammation, no tumors in all major organs, and no impairment of wound healing | Smad signaling and dermal wound healing (TSP1-TGF-β activation; systemic administration, diabetic mice): did not reduce Smad signaling or impair dermal wound healing

Continued, values first:

IC50 [1]: 0.001 to 0.01 nM
SMILES: CC(=O)N[C@@H](CO)C(=O)N[C@H](CCCCN)C(=O)N[C@@H](CC(C)C)C(N)=O [Compound 95] (HELM PEPTIDE1{[ac].S.[dK].L.[am]}$$$$V2.0)

IC50 [1]: 0.05 to 0.1 nM
SMILES: CC(=O)N[C@@H](CO)C(=O)N[C@@H](CCCCN)C(=O)N[C@H](CC(C)C)C(N)=O [Compound 96] (HELM PEPTIDE1{[ac].S.K.[dL].[am]}$$$$V2.0)

IC50 [1]: 0.1 to 0.5 nM
SMILES: CC(=O)N[C@@H](CO)C(=O)N[C@@H](CCCCN)C(=O)N[C@@H](CC(C)C)C(=O)N(C)C [Compound 97] (HELM PEPTIDE1{[ac].S.K.L.[CN(C)[*:1]]}$$$$V2.0)

IC50 [1]: 0.1 to 0.5 nM
SMILES: CNCCCC[C@H](NC(=O)[C@H](CO)NC(C)=O)C(=O)N[C@@H](CC(C)C)C(N)=O [Compound 98] (HELM PEPTIDE1{[ac].S.[CNCCCC[C@H](N[*:1])C(=O)[*:2]].L.[am]}$$$$V2.0)

IC50 [1]: 0.1 to 0.5 nM
SMILES: CC(=O)NCCCC[C@H](NC(=O)[C@H](CO)NC(C)=O)C(=O)N[C@@H](CC(C)C)C(N)=O [Compound 99] (Ac-Ser-Lys(Ac)-Leu-NH2)

IC50 [1]: 0.1 to 0.5 nM
SMILES: COC[C@H](NC(C)=O)C(=O)N[C@@H](CCCCN)C(=O)N[C@@H](CC(C)C)C(N)=O [Compound 100] (Ac-Ser(Me)-Lys-Leu-NH2)

IC50 [1]: 0.1 to 0.5 nM
SMILES: CCC(=O)N[C@@H](CO)C(=O)N[C@@H](CCCCN)C(=O)N[C@@H](CC(C)C)C(N)=O [Compound 101] (HELM PEPTIDE1{[CCC(=O)[*:2]].S.K.L.[am]}$$$$V2.0)
